Here are results for eleven compounds from PMC10901772, “Cytotoxic naphtho- and benzofurans from an endophytic fungus Epicoccum nigrum Ann-B-2 associated with Annona squamosa fruits” (Scientific Reports, 2024).

Converted amounts (≈) assume the structure as drawn. “Also recorded” adds a separate entry of the source. Read-outs that look alike come from different tables or passages of the source. A value given as a limit tells only on which side of the number the result lay.

What all share (format): cell-based
Test [1] deals with Rhodotorula glutinis [DSM 10134]. Briefly: MIC, 96-well plate serial dilution assay.
In test [2] the test system is Bacillus subtilis [DSM 10]. Briefly: MIC, 96-well plate serial dilution assay. The following applies: for MIC: DSM10, concentration range 67 to 0.5 µg/mL.
The test system of test [3] is human endocervical adenocarcinoma (KB3.1). Briefly: In vitro cytotoxicity, MTT assay. Conditions: KB 3-1, KB3.1, MTT. As for the experimental part:
(§1) In vitro cytotoxicity studies (data expressed in the form of IC50 values) were performed over a concentration range between 1 and 37 µg/mL on a panel of seven cancer cell lines including human endocervical adenocarcinoma (KB3.1), mouse fibroblasts (L929), lung cancer (A549), squamous cancer (A431), prostate cancer (PC-3), breast cancer (MCF-7), and ovary cancer (SK-OV-3) using the MTT assay as previously reported.

The subject of a further test is mouse fibroblasts (L929). Briefly: In vitro cytotoxicity, MTT assay. Here is the method: as §1
Background: Formazan colour is commonly taken as a measure of viable cells.

For test [4], the system named is Mycobacterium smegmatis [ATCC 700084]. Briefly: MIC, 96-well plate serial dilution assay.
The test system of test [5] is Mucor hiemalis [DSM 2656]. Briefly: MIC, 96-well plate serial dilution assay.
In test [6] the test system is Candida albicans [DSM 1665]. Kind of test: MIC, 96-well plate serial dilution assay.
Test [7] deals with panel of seven cancer cell lines. Kind of test: In vitro cytotoxicity, MTT assay, whole panel. The following applies: for antiproliferative / anticancer activity (in words): panel of cancer cell lines; for IC50: panel of seven different cancer cell lines, read-out: IC50 values, range over the panel. Here is the method: as §1
Test [8] has as its system Staphylococcus aureus [DSM 346]. Kind of test: MIC, 96-well plate serial dilution assay.
Test [9] relates to remaining strains (S. aureus, M. smegmatis, M. hiemalis, C. albicans, R. glutinis). Kind of test: MIC serial dilution assay, strains other than Bacillus subtilis. The following applies: all tested strains except Bacillus subtilis.
The next test concerns breast cancer (MCF-7). Briefly: In vitro cytotoxicity, MTT assay. Conditions: Homo sapiens, MCF7. As for the experimental part:
as §1

In another test the test system is prostate cancer (PC-3). Kind of test: In vitro cytotoxicity, MTT assay. Conditions: for sensitivity of PC-3 (in words): PC-3 (prostate cancer). As for the experimental part:
as §1

For a further test, the system named is ovary cancer (SK-OV-3). Kind of test: In vitro cytotoxicity, MTT assay. Conditions: Homo sapiens. As for the experimental part:
as §1

The test system of the next test is lung cancer (A549). Briefly: In vitro cytotoxicity, MTT assay. The following applies: Homo sapiens. As for the experimental part: as §1
Another test relates to squamous cancer (A431). Kind of test: In vitro cytotoxicity, MTT assay. Conditions: Homo sapiens, A-431. As for the experimental part:
as §1

[10] abbreviates: DSM10134, concentration range 67 to 0.5 µg/mL, read-out: MIC.
[11] abbreviates: Mycolicibacterium smegmatis, ATCC700084, concentration range 67 to 0.5 µg/mL, read-out: MIC.
The mark [12] stands for this setting: DSM2656, concentration range 67 to 0.5 µg/mL, read-out: MIC.
[13] abbreviates: DSM1665, concentration range 67 to 0.5 µg/mL, read-out: MIC.
Setting [14] is: DSM346, concentration range 67 to 0.5 µg/mL, read-out: MIC.
Setting [15] is: concentration range 67 to 0.5 µg/mL.

For `Cc1c2c(c3c(C)c(O)c(C(=O)O)c(O)c3c1O)COC2` [Compound 1, epicoccofuran A], the MIC is greater than 67 µg/mL in test [1] (setting [10]); 33.3 µg/mL (≈ 115 µM) in test [2]; greater than 67 µg/mL in test [4] (setting [11]); greater than 67 µg/mL in test [5] (setting [12]); greater than 67 µg/mL in test [6] (setting [13]); greater than 67 µg/mL in test [8] (setting [14]). Also, the “antimicrobial activity against Bacillus subtilis (in words)” value in test [2] was “moderate activity; also recorded: moderate antimicrobial activities”. The “potency against Bacillus relative to the standard oxytetracycline” value in test [2] was “almost half”. Besides, the IC50 in test [3] turned out to be 16 µM; in the test on mouse fibroblasts (L929) it was 12 µM. Further, in [7], the “antiproliferative / anticancer activity (in words)” value was “weak anticancer activity”. The “antimicrobial activity against the remaining strains (in words)” value in [9] was “no potential activity”.
For the compound `COC1OC(C2OCc3c(C)c(O)c(O)c(O)c32)c2c(O)c(O)c(O)c(C)c21` (stereo not shown) [Compound 2, flavimycin C], the MIC was greater than 67 µg/mL in test [1] (setting [10]); 33.3 µg/mL (≈ 84.9 µM) in test [2]; greater than 67 µg/mL in test [4] (setting [11]); greater than 67 µg/mL in test [5] (setting [12]); greater than 67 µg/mL in test [6] (setting [13]); greater than 67 µg/mL in [8] (setting [14]). For the same compound, in [2], the “antimicrobial activity against Bacillus subtilis (in words)” value was “moderate activity; also recorded: moderate antimicrobial activities”. Further, in test [2], the “potency against Bacillus relative to the standard oxytetracycline” value is “almost half”. The IC50 was 7.8 µM in test [3]; 2700 nM with breast cancer (MCF-7) (MCF-7, MTT, read-out: IC50); greater than 100 µM with prostate cancer (PC-3) (PC-3, MTT, read-out: IC50); 17 µM with ovary cancer (SK-OV-3) (SKOV-3, MTT, read-out: IC50); 9.2 µM with lung cancer (A549) (A549, MTT, read-out: IC50); 8.2 µM in the test on squamous cancer (A431) (A431, MTT, read-out: IC50). In addition, the values for the IC50 (with mouse fibroblasts (L929); in test [7]) were 6.7 µM and 1.3 to 12 µM, respectively. For the same compound, the “sensitivity of PC-3 (in words)” value in the test with prostate cancer (PC-3) was “insensitive”. The “antiproliferative / anticancer activity (in words)” value in test [7] is “highest potency; also recorded: promising anticancer activities”. Moreover, the “antimicrobial activity against the remaining strains (in words)” value in test [9] is “no potential activity”.
Regarding `Cc1c(O)c(O)c2c(c1C=O)[C@@H]1O[C@H](O2)c2c(C)c(O)c(O)c(O)c2C1=O` [Compound 3, epicocconigrone A], the minimal inhibitory concentration (MIC) in [1] (setting [10]) was greater than 67 µg/mL; in test [2], 66.6 µg/mL (≈ 178 µM); in [4] (setting [11]) it was greater than 67 µg/mL; in [5] (setting [12]) it was greater than 67 µg/mL; in [6] (setting [13]), greater than 67 µg/mL; in [8] (setting [14]) it was greater than 67 µg/mL. In addition, the IC50 in test [3] turned out to be 2.7 µM; with breast cancer (MCF-7) (MCF-7, MTT, read-out: IC50), 2400 nM; with prostate cancer (PC-3) (PC-3, MTT, read-out: IC50) it was 8 µM; in the test with ovary cancer (SK-OV-3) (SKOV-3, MTT, read-out: IC50), 12 µM; with lung cancer (A549) (A549, MTT, read-out: IC50), 10 µM; with squamous cancer (A431) (A431, MTT, read-out: IC50), 7.8 µM. Besides, the concentration for half-maximal inhibition (IC50) with mouse fibroblasts (L929) is 14 µM; in [7] it was 1.3 to 12 µM. For the same compound, the “antiproliferative / anticancer activity (in words)” value in test [7] was “active against all tested cell lines; also recorded: promising anticancer activities”.
In the case of `Cc1c(O)c(O)c(O)c(C=O)c1-c1cc2c(C=O)c(C)c(O)c(O)c2o1` [Compound 4, epicoccolide B], the MIC in test [1] (setting [10]) was greater than 67 µg/mL; in test [2], 66.6 µg/mL (≈ 186 µM); in test [4] (setting [11]) it was greater than 67 µg/mL; in test [5] (setting [12]), greater than 67 µg/mL; in test [6] (setting [13]) it was greater than 67 µg/mL; in test [8] (setting [14]) it was greater than 67 µg/mL. For the same compound, the IC50 was determined as 21 µM in test [3] and 19 µM with mouse fibroblasts (L929). Besides, the “antiproliferative / anticancer activity (in words)” value in test [7] is “weak anticancer activity”.
For `Cc1c(O)c(O)c(O)c2c1C(=O)OC2` [Compound 5, epicoccone], the MIC in test [1] (setting [10]), in test [2], in test [4] (setting [11]), in test [5] (setting [12]), in [6] (setting [13]) and in [8] (setting [14]) was greater than 67 µg/mL throughout. The IC50 came out at 6.1 µM in test [3]; 3800 nM in the test on breast cancer (MCF-7) (MCF-7, MTT, read-out: IC50); 8 µM in the test on prostate cancer (PC-3) (PC-3, MTT, read-out: IC50); 8.2 µM in the test with ovary cancer (SK-OV-3) (SKOV-3, MTT, read-out: IC50); 6.8 µM with lung cancer (A549) (A549, MTT, read-out: IC50); 7.3 µM with squamous cancer (A431) (A431, MTT, read-out: IC50). Also, the IC50 with mouse fibroblasts (L929) was 7.5 µM; in [7], 1.3 to 12 µM. In test [7], the “antiproliferative / anticancer activity (in words)” value was “active against all tested cell lines; also recorded: promising anticancer activities”.
Turning to `Cc1c(O)c(O)c(O)c2c1COC2` [Compound 6, 4,5,6-trihydroxy-7-methyl-1,3-dihydroisobenzofuran], the MIC in [1] (setting [10]), in test [2], in test [4] (setting [11]), in test [5] (setting [12]), in test [6] (setting [13]) and in test [8] (setting [14]) was greater than 67 µg/mL each time. The IC50 in test [3] was 3.4 µM; in the test with breast cancer (MCF-7) (MCF-7, MTT, read-out: IC50), 1300 nM; in the test on prostate cancer (PC-3) (PC-3, MTT, read-out: IC50), greater than 100 µM; with ovary cancer (SK-OV-3) (SKOV-3, MTT, read-out: IC50) it was 7.8 µM; with lung cancer (A549) (A549, MTT, read-out: IC50), 6.3 µM; with squamous cancer (A431) (A431, MTT, read-out: IC50) it was 7.3 µM. In addition, the IC50 is 2.8 µM in the test with mouse fibroblasts (L929) and 1.3 to 12 µM in [7]. The “sensitivity of PC-3 (in words)” value in the test on prostate cancer (PC-3) was “insensitive”. Also, the “antiproliferative / anticancer activity (in words)” value in test [7] is reported as “highest potency; also recorded: promising anticancer activities”.
Take `C/C(=C\c1csc(C)n1)[C@@H]1C[C@@H]2O[C@]2(C)CCC[C@H](C)[C@H](O)[C@@H](C)C(=O)C(C)(C)[C@@H](O)CC(=O)O1` [Epothilone B, reference compound]: the IC50 is 0.07 nM in the test with breast cancer (MCF-7); 9e-05 µM in the test with prostate cancer (PC-3); 9e-05 µM in the test on ovary cancer (SK-OV-3); 5e-05 µM in the test on lung cancer (A549) (A549); 6e-05 µM in the test on squamous cancer (A431).
For the compound `NC[C@H]1O[C@H](O[C@H]2[C@H](O)[C@@H](O[C@H]3O[C@H](CO)[C@@H](O)[C@H](N)[C@H]3O)[C@H](N)C[C@@H]2N)[C@H](O)[C@@H](O)[C@@H]1O` [Kanamycin, reference compound], the MIC in test [4] (setting [15]) is reported as 1.7^ K µg/ml.
As to `C[C@@H]1[C@H](O)[C@@H](C)/C=C/C=C/CC/C=C/C=C/C=C/C=C/C(O[C@H]2O[C@H](C)[C@@H](O)[C@H](N)[C@@H]2O)CC2O[C@](O)(CC(O)C(O)CCC(O)CC(O)CC(O)CC(=O)O[C@H]1C)CC(O)C2C(=O)O` (stereo partly shown) [Nystatin, reference compound], the MIC in test [1] (setting [15]), in test [5] (setting [15]) and in test [6] (setting [15]) was 2.1^N µg/ml each time.
With `CN(C)[C@@H]1C(O)=C(C(N)=O)C(=O)[C@@]2(O)C(O)=C3C(=O)c4c(O)cccc4[C@@](C)(O)[C@H]3[C@H](O)[C@@H]12` [Oxytetracycline, reference compound], in test [2], the MIC was 16.6 µg/mL (≈ 36.1 µM).
Regarding Gentamycin [reference compound], the minimum inhibitory concentration (MIC) in test [8] (setting [15]) was 0.21^G µg/ml.

As a reminder, the MIC is the smallest concentration in the dilution series that meets the test's criterion for growth inhibition. A word on the IC50: it is the concentration that gives 50% inhibition.
